Experimental data: patent US9056104B2, “Dynamic inhibitors of heat shock protein 90” (THE UNIVERSITY OF KANSAS, priority 2011, dated 2015)
Where two headings read alike, the source gives them in different places.

Assays:
[1] = tested on: prostate cancer (PC3mm2, A549 and HT29) cell lines; assay: Anti-proliferative activity against prostate cancer cell lines (collective statements); format: cell-based
Procedure: (§1) Once synthesized, the library of coumermycin A1 analogs containing the olefinic and saturated linkers, were evaluated for anti-proliferative activity against SKBr3 (estrogen receptor negative, Her2 over-expressing breast cancer cells), MCF-7 (estrogen receptor positive breast cancer cells), A549 (human lung adenocarcinoma epithelial), HT29 (Human colon adenocarcinoma grade II), and PC3mm2 (androgen receptor insensitive prostate cancer) cell lines. The activities produced provide insight into the optimal distance between binding sites and provide rationale for subsequent analog design. […] As shown, X is at the 6 position and Y is at the 8 position.
(§2) The first series of analogs included compounds with simplified moieties in lieu of the noviose sugar, while subsequent analogs included varying coumarin, noviose, and tether modifications. Many of these coumermycin A1 analogs manifested potent anti-proliferative activity that correlated directly to HSP90 inhibition as evidenced by the degradation of HSP90-dependent client proteins. Replacement of the laborious, stereochemical complex, and expensive noviose sugar with commercially available piperidine moieties produced compounds that manifested ˜100-fold increase in antiproliferative activities.

[2] = tested on: prostate cancer (PC3mm2) cell lines; assay: as above; format: cell-based; conditions: low nanomolar, prostate cancers; read-out: anti-proliferative activities against prostate cancers
Procedure: as §1, §2

[3] = tested on: MCF-7 (estrogen receptor positive breast cancer cells); assay: Anti-proliferative activity against MCF-7 cells; format: cell-based; conditions: mean ± SD
Procedure: as §1, with “lines.” for “lines. The activities produced provide insight into the optimal distance between binding sites and provide rationale for subsequent analog design.”

[4] = tested on: SKBr3 (estrogen receptor negative, Her2 over-expressing breast cancer cells); assay: Anti-proliferative activity against SKBr3 cells; format: cell-based; conditions: mean ± SD
Procedure: as §1, with “lines.” for “lines. The activities produced provide insight into the optimal distance between binding sites and provide rationale for subsequent analog design.”

[5] = tested on: A549 (human lung adenocarcinoma epithelial); assay: Anti-proliferative activity against A549 cells; format: cell-based
Procedure: as §1

[6] = tested on: HT29 (Human colon adenocarcinoma grade II); assay: Anti-proliferative activity against HT29 cells; format: cell-based
Procedure: as §1

[7] = tested on: HSP90-dependent client proteins (Her-2, Raf, Akt); assay: Western blot analyses of HSP90 client protein degradation in MCF-7 breast cancer cells; format: cell-based; conditions: MCF-7 lysates, 24 hour treatment, 5x and 1/2 of antiproliferative IC50
Procedure: Since actin is not dependent on HSP90 for its maturation, actin levels should remain constant after treatment with an HSP90 inhibitor and is therefore used as a control. […] L represents a concentration ½ of the anti-proliferative IC50 value while H represents a concentration 5 times greater than the anti-proliferative IC50 value. GDA (500 nM) represents a positive control, while DMSO (0), vehicle, serves as the negative control. […]

[8] = tested on: PC3mm2 (androgen receptor insensitive prostate cancer); assay: Anti-proliferative activity against PC3mm2 cells; format: cell-based
Procedure: as §1

[9] = tested on: breast cancer (SKBr3 and MCF7) cell lines; assay: Anti-proliferative activity against breast cancer cell lines (collective statements); format: cell-based; conditions: versus Compound 68
Procedure: as §1, §2

Solubility in DMSO = format: physicochemical
[10] = tested on: SKBr3, MCF-7, A549, HT29 and PC3mm2 cell lines; assay: Anti-proliferative activity, cell lines not specified; format: cell-based; conditions: versus Compounds 65-70
Procedure: as §1

[11] = Table 4, read-out: Anti-Proliferation Activities of Biaryl Dimers, MCF-7
[12] = Table 4, read-out: Anti-Proliferation Activities of Biaryl Dimers, SKBr3
[13] = Table 4, read-out: Anti-Proliferation Activities of Biaryl Dimers, A549
[14] = Table 4, read-out: Anti-Proliferation Activities of Biaryl Dimers, HT29
[15] = Table 4, read-out: Anti-Proliferation Activities of Biaryl Dimers, PC3mm2
[16] = Table 5, read-out: Anti-Proliferation Activities Non-Noviosylated Biaryl Dimers, MCF-7
[17] = Table 5, read-out: Anti-Proliferation Activities Non-Noviosylated Biaryl Dimers, SKBr3

Q: Which “fold more active than any other dimer against prostate cancers” value ([1]; versus other non-noviosylated dimers) does the source give for `Cc1c(OC2CCN(C)CC2)ccc2cc(NC(=O)CCC/C=C/CCCC(=O)Nc3cc4ccc(OC5CCN(C)CC5)c(C)c4oc3=O)c(=O)oc12` [Compound 32] here?
A: Its value is 10-20 fold.

Q: What about the IC50 [2] of the same compound?
A: Its IC50 is 0.2 to 0.4 µM.

Q: What about the IC50 ([3]; Table 2, read-out: Anti-Proliferation Activities of non-Noviosylated Olefin Dimers, MCF7) of the same compound?
A: Its IC50 is 0.63 ± 0.03 µM.

Q: And the IC50 ([4]; Table 2, read-out: Anti-Proliferation Activities of non-Noviosylated Olefin Dimers, SKBr3)?
A: Its IC50 is 0.89 ± 0.01 µM.

Q: What about the IC50 ([5]; Table 2, read-out: Anti-Proliferation Activities of non-Noviosylated Olefin Dimers, A549) of the same compound?
A: Its IC50 is 0.22 µM.

Q: And the IC50 ([6]; Table 2, read-out: Anti-Proliferation Activities of non-Noviosylated Olefin Dimers, HT29)?
A: Its IC50 is 0.24 µM.

Q: And the “degradation of Raf and Akt, Western blot” value [7]?
A: Its value is “caused degradation of Raf and Akt”.

Q: What about the “effect on Her2, Western blot” value [7] of the same compound?
A: Its value is “no effect on Her2”.

Q: And the IC50 ([8]; Table 2, read-out: Anti-Proliferation Activities of non-Noviosylated Olefin Dimers, PC3mm2)?
A: Its IC50 is 0.44 µM.

Q: What does the source list for `COc1ccc(C(=O)Nc2cc3ccc(OC4OC(C)(C)C(OC)C(O)C4O)c(C)c3oc2=O)cc1-c1cc(C(=O)Nc2cc3ccc(OC4OC(C)(C)C(OC)C(O)C4O)c(C)c3oc2=O)ccc1OC` (stereo not shown) [Compound 66]?
A: fold more active than Compound 68 against breast cancer cell lines [9]: 2 fold; IC50 [3, 11]: 0.76 ± 0.14 µM; IC50 [4, 12]: 1.16 ± 0.21 µM; IC50 [5, 13]: 36.8 µM; IC50 [6, 14]: 36.5 µM; IC50 [8, 15]: 36.7 µM

Q: For `COc1ccc(C(=O)Nc2cc3ccc(OC4OC(C)(C)C(OC)C(O)C4O)c(OC)c3oc2=O)cc1-c1cc(C(=O)Nc2cc3ccc(OC4OC(C)(C)C(OC)C(O)C4O)c(OC)c3oc2=O)ccc1OC` (stereo not shown) [Compound 70], which “fold more active against prostate cancer cell lines than 8-Me analog Compound 66” value ([1]; versus Compound 66) is on record?
A: Its value is 100-150 fold.

Q: And the IC50 [3, 11]?
A: The IC50 was 0.88 ± 0.2 µM.

Q: And the IC50 [4, 12]?
A: Its IC50 is 0.91 ± 0.12 µM.

Q: And the IC50 [5, 13]?
A: The IC50 was 0.21 µM.

Q: And the IC50 [6, 14]?
A: Its IC50 is 0.27 µM.

Q: What about the IC50 [8, 15] of the same compound?
A: Its IC50 is 0.27 µM.

Q: Which “solubility in DMSO” value (Solubility in DMSO) does the source give for `COc1ccc(C(=O)Nc2cc3ccc(OC4CCN(C)CC4)c(C)c3oc2=O)cc1-c1cc(C(=O)Nc2cc3ccc(OC4CCN(C)CC4)c(C)c3oc2=O)ccc1OC` [Compound 71] here?
A: The value was “inherent insolubility in DMSO”.

Q: What about the IC50 [3, 16] of the same compound?
A: Its IC50 is 14.2 ± 2.3 µM.

Q: And the IC50 [4, 17]?
A: The IC50 was 4.98 ± 0.7 µM.

Q: With `COc1ccc(C(=O)Nc2cc3ccc(OCCCN(C)C)c(C)c3oc2=O)cc1-c1cc(C(=O)Nc2cc3ccc(OCCCN(C)C)c(C)c3oc2=O)ccc1OC` [Compound 72] as the compound, how does the “fold less active than the corresponding noviosylated coumarin-containing analogs (Compounds 65-70)” value [10] read?
A: The value was ~10 fold.

Q: What about the “solubility in DMSO” value (Solubility in DMSO) of the same compound?
A: The value was “inherent insolubility in DMSO”.

Q: What about the IC50 [3, 16] of the same compound?
A: Its IC50 is 11.7 ± 1.6 µM.

Q: What about the IC50 [4, 17] of the same compound?
A: Its IC50 is 9.5 ± 1.2 µM.

Q: What about the IC50 ([5]; Table 5, read-out: Anti-Proliferation Activities Non-Noviosylated Biaryl Dimers, A549) of the same compound?
A: The IC50 was 93.5 µM.

Q: And the IC50 ([6]; Table 5, read-out: Anti-Proliferation Activities Non-Noviosylated Biaryl Dimers, HT29)?
A: Its IC50 is 62.7 µM.

Q: And the IC50 ([8]; Table 5, read-out: Anti-Proliferation Activities Non-Noviosylated Biaryl Dimers, PC3mm2)?
A: The IC50 was 52.3 µM.
